Data on eight molecules can be found in patent US20250057859A1, “CANNABICHROMENEQUINONE AND ANALOGUES THEREOF, AND METHOD OF USING COMPOSITIONS THEREOF AS ANTI-INFLAMMATORY AGENTS” (Juva Life, Inc., priority 2021, published 2025).

What is called IC50 is the concentration needed to halve the response being measured.

Where two headings read alike, the source gives them in different places. Bounds are passed on as bounds.

In one experiment the target is T1, recombinant human LOX-5 (Homo sapiens, UniProt P09917).
T1 construct: expressed in insect cells (Amino Acids 1-674) was obtained from Cayman; purchased Cayman 60402; host or cells: insect cells
T1 sequence (P09917 1-674): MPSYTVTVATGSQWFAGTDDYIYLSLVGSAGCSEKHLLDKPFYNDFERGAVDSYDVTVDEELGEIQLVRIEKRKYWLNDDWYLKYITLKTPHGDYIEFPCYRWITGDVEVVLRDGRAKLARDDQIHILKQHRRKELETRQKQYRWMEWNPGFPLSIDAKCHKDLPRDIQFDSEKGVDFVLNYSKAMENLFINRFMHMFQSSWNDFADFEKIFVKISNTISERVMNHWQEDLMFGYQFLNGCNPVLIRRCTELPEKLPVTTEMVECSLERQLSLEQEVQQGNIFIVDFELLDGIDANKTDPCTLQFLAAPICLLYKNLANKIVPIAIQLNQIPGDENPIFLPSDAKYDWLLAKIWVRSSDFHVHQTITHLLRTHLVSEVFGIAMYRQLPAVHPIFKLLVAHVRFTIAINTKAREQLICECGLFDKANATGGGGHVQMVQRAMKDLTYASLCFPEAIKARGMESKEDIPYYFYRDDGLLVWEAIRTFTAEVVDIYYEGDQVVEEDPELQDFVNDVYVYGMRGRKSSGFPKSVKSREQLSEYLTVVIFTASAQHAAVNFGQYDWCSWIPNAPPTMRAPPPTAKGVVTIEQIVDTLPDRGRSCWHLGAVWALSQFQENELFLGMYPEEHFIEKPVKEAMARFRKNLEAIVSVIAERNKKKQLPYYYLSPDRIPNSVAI
The experiment can be described thus: Biochemical LOX-5 assay. From the text:
• Active recombinant human LOX-5 protein expressed in insect cells (Amino Acids 1-674) was obtained from Cayman (Cat #60402) • 2′,7′-dichlorodihydrofluorescein diacetate, H2DCFDA, was obtained from Sigma (Cat #96883) • Arachidonic acid, AA, was obtained from Sigma (Cat #A3611) • Other reagents: black 384 well assay plates were obtained from Corning (Cat #3820). • Equipment: Synergy Neo2 Multi-mode plate reader (Biotek), Labcyte 550 acoustic dispenser (Labcyte), Biomek FX robotic dispenser (Beckman Coulter), Sorvall Legend RT centrifuge (Kendro).
The LOX-5 assay was performed in assay buffer comprising: 50 mM Tris (pH 7.5), 2 mM EDTA, 2 mM CaCl2, 3 uM AA, 10 uM ATP, 10 uM H2DCFDA, and recombinant enzyme (50mU per 20 ul reaction, as defined by manufacturer). Serially diluted compounds were prepared in DMSO in Echo qualified 384 well plates. An assay buffer was then prepared without AA and ATP supplemented with 20 uM H2DCFDA. 10 μL of the supplemented buffer was dispensed into control (no enzyme) wells in the black 384well assay plate. Next, a 2× enzyme solution was prepared, comprising 100 mU LOX-5 enzyme in the supplemented assay buffer. 10 uL of the 2× enzyme solution was then dispensed into test wells in the black 384well assay plate. Serially diluted compounds were added to the assay plate by acoustic dispensing (Labcyte 550). Control wells received DMSO only.
Next, the 2× substrate was prepared to comprise 6 uM arachidonic acid and 20 uM ATP in the assay buffer. 10 μL of the 2× substrate was then added to all wells in the assay plate. The plate was incubated for 20 min. The plate was read on Synergy Neo2 in fluorescence mode: excitation 485 nm, emission 530 nm. % inhibition and the resulting IC50 was calculated for the compound using the following equation:
[formula] • where RFU100% is fluorescence in control samples without compound, RFU0% is fluorescence in control samples without LOX-5, and RFUcompound fluorescence in a sample with compound.
The calculated %-Inh values were plotted against compound concentration. To determine IC50 values, dose-response curves were fitted by a 4-parameter sigmoid inhibition model using XLFit® software (IDBS).

Another experiment relates to IL-10. As to the kind of experiment: IL-10 secretion assay in human PBMCs (PHA-M-stimulated, ELISA). As to conditions: PBMC, PHA-M 10 ug/mL 40 hr, read-out: IL10 inhibitory activity IC50. The experiment is classed as cell-based. Here is the method: Fetal bovine serum (FBS) was obtained from ThermoFisher (Cat #16000044). • Other reagents: 96well TC plates were obtained from ThermoFisher (Cat #07-2000-90).
Cryopreserved PBMCs were thawed in a water bath and transferred to 50 mL polypropylene tubes. The cells were washed two times with 25 mL of RPMI medium supplemented with 5% of regular FBS and re-suspended at a density of 1.5×10^6 cells/mL. The cells were plated into 96 well TC plate (100 uL/well). Serially diluted compound was added to the cells in duplicate wells for each concentration. Control wells received DMSO only (0.3% final). The cells were pre-incubated with compound for 2 hr. After pre-incubation, the cells were stimulated by PHA-M (10 ug/mL) for 40 hr. Control samples with and without PHA-M in the absence of compound were assembled in each test plate. IL-10 was detected in media supernatants by using a sandwich anti-IL10 ELISA kit (BD Biosciences) according to protocol provided by the manufacturer. ELISA readout (optical density at 450 nm) is commensurable with the amount of IL-10 produced by the cells. Assay window was determined in each experiment by comparing average OD450 values in stimulated and un-stimulated samples in the absence of compound. ELISA calibration was performed in each detection plate using serially diluted recombinant human IL-10 standard to ensure that OD450 values for all test samples were within linear range of detection.%-Inhibition by compound was calculated using following equation:
[formula] • where OD450100% is optical density in control samples stimulated with PHA-M without compound, OD4500% is optical density in unstimulated control samples, and OD450compound is optical density in a sample stimulated with PHA-M in the presence of compound. The calculated %-Inh values were plotted against compound concentration. To determine IC50 values, dose-response curves were fitted by a 4-parameter sigmoid inhibition model using XLFit® software (IDBS).
A general note: ELISA stands for enzyme-linked immunosorbent assay.

In another experiment the test system is IL-1β. As to the kind of experiment: Inhibitory activity on IL-1β.
The mark [1] stands for this setting: recombinant enzyme, 3 uM AA, read-out: 5-Lox inhibitory activity IC50.

`CCCCCC1=C(NCCC)C(=O)C2=C(OC(C)(CCC=C(C)C)C=C2)C1=O` (stereo not drawn) [Formula XXV]: the IC50 on recombinant human LOX-5 (setting [1]) is 1180 nM; in the experiment on IL-10 it was greater than 10000 nM; in the experiment with IL-1β it was greater than 10000 nM.

As for `CCCCCC1=CC(=O)C2=C(OC(C)(CCC=C(C)C)C=C2)C1=O` (stereo not drawn) [Formula II], the figures for the IC50 at recombinant human LOX-5 (setting [1]), in the experiment with IL-10 and with IL-1β were 270 nM, 780 nM and 1720 nM, respectively.

As for `CCCCCC1=CC(=O)C2=C(O[C@](C)(CCC=C(C)C)C=C2)C1=O` [Formula XXVI], the half-maximal inhibitory concentration (IC50) on recombinant human LOX-5 (setting [1]) turned out to be 230 nM; in the experiment on IL-10, 380 nM; with IL-1β it was 540 nM.

With `CCCCCc1cc(O)c2c(c1O)OC(C)(CCC=C(C)C)C=C2` (stereo not drawn) [Formula XXII], the results for the IC50 on recombinant human LOX-5 (setting [1]), in the experiment on IL-10 and with IL-1β were 250 nM, 920 nM and 3300 nM, respectively.

In the case of `CCCCCC1=C(NCC)C(=O)C2=C(OC(C)(CCC=C(C)C)C=C2)C1=O` (stereo not drawn) [Formula XXVIII], the IC50 at recombinant human LOX-5 (setting [1]), in the experiment on IL-10 and in the experiment with IL-1β was greater than 10000 nM throughout.

Take `CC(C)=CCCC1(C)C=CC2=C(O1)C(=O)c1ccccc1C2=O` (stereo not drawn) [Formula XXVII]: the IC50 at recombinant human LOX-5, with IL-10 and in the experiment on IL-1β was greater than 10000 nM in each case.

Consider `CCCCCc1cc(OC)c2c(c1OC)OC(C)(CCC=C(C)C)C=C2` (stereo not drawn) [Formula XXIV], for which the IC50 at recombinant human LOX-5 (setting [1]), with IL-10 and with IL-1β was greater than 10000 nM in each case.

Turning to `CCCCCc1cc(OC(C)=O)c2c(c1OC(C)=O)OC(C)(CCC=C(C)C)C=C2` (stereo not drawn) [Formula XXIII], the 50% inhibitory concentration (IC50) on recombinant human LOX-5 (setting [1]) is 2710 nM; with IL-10 it was 920 nM; in the experiment with IL-1β, 970 nM.
